Measurements reported in patent US20240041975A1, “ANTICANCER PEPTIDE AND USE THEREOF FOR INHIBITING CANCER CELL VIABILITY” (NATIONAL TSING HUA UNIVERSITY, priority 2022, published 2024).

What was measured:
[1] = tested on: human lung cancer cell/cell line and oral squamous cell carcinoma cell/cell line; assay: MTT assay, overall anticancer spectrum; format: cell-based; details: for efficiency to the human lung cancer cell line: human lung cancer cell lines, FIG. 1A-1C
Protocol: (§1) Human non-small cell lung cancer line A549, PC9, and H1975 (Osimertinib sensitive; Gefitinib toleran; belonged to T790M mutations), oral squamous cell carcinoma cell line OECM-1 were cultured in RPMI medium supplemented with 10% fetal bovine serum (FBS) and antibiotic. Human oral squamous cell carcinoma cell line C9 and human diploid fibroblast (HFW) were cultured in DMEM medium supplemented with 10% fetal bovine serum (FBS) and antibiotic. Cells were cultured in a humidified incubator containing 5% CO2 at 37° C.
(§2) The cytotoxicity of cancer cells via administrating the peptides were measured by the MTT assay. All cancer cell lines were seeded in a 96-well plate at a density of 5×10^4 cells per well and incubated for 24 hr. After the medium was removed, using the anti-cancer peptides ranged from 50 μM to 0.78 μM for treatment, diluted in the growth medium, and administered 24 hr. The media was then removed, determined cell viability by incubated for 3 hours at 37 C with the addition of 100 μL Thiazolyl Blue Tetrazolium Bromide (MTT 0.5 mg/ml in PBS; M2128, Sigma-Aldrich) diluted by ratio 1:9 in the growth medium. Next, the medium with MTT solution was removed, added 100 μl Dimethyl Sulfoxide (DMSO, D4540, Sigma-Aldrich) for dissolving the formazan crystal. Cell survival rate was calculated by measuring the absorbance at 570 nm using a microplate reader (Sunrise TM, TECAN, Switzerland). Medium without peptide and mixed with H2O2 represented positive and negative control, respectively. The experiments were repeated at least three times. Cell Viability percentage was calculated as follows: […]

[2] = tested on: Human non-small cell lung cancer line PC9; assay: MTT assay cytotoxicity, PC9; format: cell-based; details: 24 hr treatment, read-out: anticancer activity Human non-small cell lung cancer line PC9
Protocol: as §1, §2

[3] = tested on: Human oral squamous cell carcinoma cell line C9; assay: MTT assay cytotoxicity, C9; format: cell-based; details: for activity against oral squamous cell carcinoma cell line C9 (in words): FIG. 1E; for IC50: MTT, 24 hr treatment, read-out: anticancer activity oral squamous cell carcinoma cell line C9
Protocol: as §1, §2

[4] = tested on: Human non-small cell lung cancer line A549; format: cell-based; details: for IC50: 24 h
Protocol: as §1, §2

[5] = tested on: Human non-small cell lung cancer line H1975; assay: MTT assay cytotoxicity, H1975; format: cell-based; details: 24 hr treatment, read-out: anticancer activity Human non-small cell lung cancer line H1975
Protocol: as §1, §2

[6] = tested on: oral squamous cell carcinoma cell line OECM-1; assay: MTT assay cytotoxicity, OECM-1; format: cell-based; details: 24 hr treatment, read-out: anticancer activity oral squamous cell carcinoma cell line OECM-1
Protocol: as §1, §2

[7] = MTT assay cell cytotoxicity, normal cell HFW; format: cell-based; details: human, human diploid fibroblast (HFW) cells, 24 hr treatment
Protocol: as §1, §2

A549 cell = assay: Killing kinetics (MTT time course); format: cell-based, human; details: 4×IC50 (6.452 μM) vs 2×IC50 (3.226 μM), within 240 minutes
Protocol: To evaluate the cytotoxic activity and time course against the A549 cell, two different concentrations of K1R12-AGP-RW 2×IC50 (3.226 μM), 4×IC50 (6.452 μM) were used. Cells were seeded as described as MTT assay, after 24 hours culture, cell were incubated with 2×IC50 and 4×IC50 peptide solution for 60 minutes, 120 minutes, 180 minutes, 240 minutes. Further incubated in 10% MTT solution for an additional 4 hours. Remove MTT solution and Dimethyl Sulfoxide (DMSO, D4540, Sigma-Aldrich) was added to formazan crystal solubilization. Using a microplate reader (Sunrise TM, TECAN, Switzerland) detecting the absorbance at 570 nm. The experiments were repeated three times independently.

[8] = tested on: Human non-small cell lung cancer cell A549; assay: HMGB1 secretion by western blot; format: cell-based; details: 4×IC50 (6.452 μM)
Protocol: FIG. 3 depict that the release level of HMGB1 was analyzed by Western Blot. Human non-small cell lung cancer cell A549 administrated with 6.452 μM (4×IC50) of K1R12-AGP-RW for different time period (60 min, 120 min, 240 min), the HMGB1 release form lysate (L) to the supernatant (S). A549 treated with medium without serum as control group.
In one embodiment, cancer cells were seeded with 5×10^5 cells/well in 6-cm polystyrene in complete medium and allowed to adhere 24 hr. Cells were treated with K1R12-AGP-IR, K1R12-AGP-RW, K1R12-AGP-RI at 4×IC50 dilution in medium without serum and incubated at 37° C. for different time points (60 min,120 min,240 min). RPMI medium without peptide treated for 24 hr which was used as a negative control. Supernatants (S) were collected and centrifuged at 1,500 rcf for 5 minutes. Cell lysates (L) use 500 μL Trypsin-EDTA harvested after centrifuged at 750 g for 5 minutes and washing lysate twice with PBS. And addition 150 μL RIPA and protease inhibitor blended buffer, then centrifugation same condition with supernatant(S). Sonication with 5 cycle number, time on or off 30 sec, and centrifugation for 10 minutes, 1400 g at 4° C., thereafter lysed using a 6× Sample buffer, 0.1M DTT (Sigma), and water. Protein concentrations of cell extracts were determined by Bradford reagent. Both supernatants and lysate were boiled in 80° C. 10 minutes and resolved by 12% sodium dodecyl sulfate-polyacrylamide gel electrophoresis (SDS-PAGE), and then electro transferred to a polyvinylidene difluoride (PVDF) membrane (Millipore). The membrane was blocked in 5% skimmed milk and incubated with the HMGB1 antibody (rabbit, polyclonal, Abcam ab 18256). The membrane was then rinsed several times with TB ST, incubated with horseradish peroxidase (HRP)-conjugated secondary antibody (Abcam ab6721). The signals were visualized by enhanced chemiluminescence (ECL) and recorded by a detected system (Image Quant LAS 4000mini).

[9] = tested on: Human non-small cell lung cancer cell A549; assay: ATP release (ENLITEN ATP assay kit, luciferin-luciferase); format: cell-based; details: 4×IC50 (6.452 μM)
Protocol: FIG. 4 depict that Detection ATP release into supernatant was detect after adminstrated with K1R12-AGP-RW. Human non-small cell lung cancer cell A549 administrated with 6.452 μM (4×IC50) of K1R12-AGP-RW for different time period (30 min, 60 min, 90 min, 120 min). Data are presented as means ±SEM, ***p<0.005, **p<0.01, versus the control group. Data of FIG. 4 were analyzed using the one-way ANOVA and multiple comparison test.
The ENLITEN ATP assay kit (Promega, Madison, WI, FF2000) was used for the detection of ATP release levels. Above all seeds, cancer cells in 96 well with 1×10^5 cell per well, incubated 24 hours. On day 2, replace the medium with the fresh medium containing 4×IC50 K1R12-AGP-RW incubated at different time points (30 min, 60 min, 90 min, 120 min). The supernatant was college and centrifuged 500 xg for 10 minutes to remove debris. Add reconstituted rL/L reagent with the sample and detection immediately, expressed as relative light units (RLU). Serially diluted ATP standard to calculating ATP concentrations generates a regression curve. All reagents in this kit must be returned to room temperature before use.

[10] = tested on: Human non-small cell lung cancer cell A549; assay: Extracellular cytochrome c release (ELISA); format: cell-based; details: 4×IC50 (6.452 μM)
Protocol: FIG. 5 depict that release of mitochondria DAMPs Cytochrome c was detected by Elisa kit. Human non-small cell lung cancer cell A549 administrated with 6.452 μM (4×IC50) of K1R12-AGP-RW for different time period (30 min, 60 min, 90 min, 120 min, […]). Data are presented as means ±SEM, ***p<0.005, **p<0.01, versus the control group.
The ELISA kit for detection of cytochrome c was obtained from the R&D System (Minneapolis, MN, USA). Before the experiment, prepare a buffer solution or reagent from the kit. Seed cancer cells 1×10^5 in 96 well incubated 24 hours. After 24 hours, substitute with 4×IC50 K1R12-AGP-RW dilutions in medium, and incubate designated time points (30 min, 60 min, 90 min, 120 min). Following the supernatant was centrifuged at 16000 xg for 10 minutes. Add 50 μL supernatant and 75 μL of cytochrome c conjugate to each well. Then, add 50 μL of standard, control, or sample per well. Mix by tapping the plate frame for 1 minute. Cover with the adhesive strip provided. Incubate for 2 hours at room temperature. A plate layout is provided to record standards and samples assayed. Then use the wash buffer washed 5 times with 400 μL. The last wash removes any remaining Wash Buffer by decanting. […] Detection the cytochrome c at absorbance 450 nm using a microplate reader (Sunrise TM, TECAN, Switzerland).

[11] = tested on: Human non-small cell lung cancer cell A549; assay: ROS release (DCFDA assay); format: cell-based; details: 4×IC50 (6.452 μM); 120 minutes
Protocol: FIG. 6 depict that release of ROS from cancer cells were administrated with the peptide. Human non-small cell lung cancer cell A549 administrated with 6.452 μM (4×IC50) of K1R12-AGP-RW for 120 min. The cells of control group were treated with RPMI-1640 without phenol red. Data are presented as means ±SEM, **p<0.05, versus the control group. Data of FIG. 6 were analyzed by Student's t-test.
The 2′,7′-dichlorofluorescin diacetate (DCFDA) intracellular ROS detection assay kit from Abcam (UK, ab113851) was used for measuring ROS release. Cells were seeded in a 96 well black clear bottom plate with 4×10^4 per well, culture 24 hours. Remove medium and washed once in pre-warm 1× PBS with 100 μl per well. Furthermore, cells were treated with 25 μM DCFDA in 1× buffer solution incubated for 120 minutes. Washed again with a buffer solution of 100 μL/well, before adding the 4×IC50 K1R12-AGP-RW dissolved in RPMI without phenol red, and incubated 60,120 and 240 minutes. Cells incubated with RPMI without phenol red were used as a negative control, and the positive control was tertbutyl hydroperoxide (TBHP). Using a fluorescence plate reader (VICTOR3, PerkinElmer, USA) determined at an excitation wavelength of 485 nm and an emission wavelength of 535 nm.

Substance | anticancer activity spectrum ([1]; human lung cancer and oral squamous cell carcinoma cell lines, MTT) | efficiency to the human lung cancer cell line [1] | IC50 [2] [µM] | activity against oral squamous cell carcinoma cell line C9 (in words) [3] | IC50 [3] [µM] | IC50 [4] [µM] | IC50 [5] [µM] | IC50 [6] [µM] | IC50 at 24 h [7] [µM] | killing kinetics, 4×IC50 versus 2×IC50 (A549 cell) | HMGB1 in cell lysate (L) ([8]; 60, 120, 240 minutes, time-dependent) | HMGB1 in supernatant (S) ([8]; after 120 minutes) | HMGB1 in supernatant (S) ([8]; after 240 minutes) | inhibition of A549 compared with the other cancer cells ([4]; MTT) | ATP secretion ([9]; after 30 minutes, with time increased) | ATP secretion ([9]; within 30 minutes) | cytochrome c release ([10]; 120 minutes) | cytochrome c release versus untreated cell ([10]; 240 minutes) | ROS release versus untreated cell [11]
Ac-KRIVQRIKDFLRAGPIKDFLR-NH2 [SEQ ID NO: 5, Ac-KRIVQRIKDFLR-AGP-IKDFLR-NH2] | broad-spectrum anticancer activity | good efficiency | 10.5 | weak | 25.3 | 6.26 | 11.9 | 11.5 | 13.5 |  |  |  |  |  |  |  |  |  | 
Ac-KRIVQRIKDFLRAGPRRLVRI-NH2 [SEQ ID NO: 7, Ac-KRIVQRIKDFLR-AGP-RRLVRI-NH2] |  | good efficiency | 16.8 | weak | 30.4 | 3.86 | 13.7 | 11.2 | 10.4 |  |  |  |  |  |  |  |  |  | 
Ac-KRIVQRIKDFLRAGPRRWWRW-NH2 [SEQ ID NO: 6, Ac-KRIVQRIKDFLR-AGP-RRWWRW-NH2] |  |  | 5.42 |  | 4.41 | 1.61 | 10.9 | 4.56 | 11.1 | more rapid kill cancer cells | reduce | slight increase | complete release into the supernatant(S) | more effective | reduced | higher level | release at a certain level and keep stabilize | significant increase | significant increase
